# Results published in ChEMBL document CHEMBL5518181, “Studies of antibacterial activity (in vitro and in vivo) and mode of action for des-acyl tridecaptins (DATs)” (Eur J Med Chem, 2024).
# Calls of active or inactive are those of the source. The rule behind the calls is not given here.
# What was measured:
# Escherichia coli [1] = assay: Antibacterial activity against wild-type Escherichia coli ATCC 25922 assessed as inhibition of bacterial growth incubated for 18 hrs in presence of 50% heat inactivated human serum; type: functional; details: read-out: MIC100
# Klebsiella pneumoniae [2] = assay: Antibacterial activity against wild-type Klebsiella pneumoniae ATCC 13883 assessed as inhibition of bacterial growth incubated for 18 hrs in presence of 50% heat inactivated human serum; type: functional; details: read-out: MIC100
# Pseudomonas aeruginosa [3] = assay: Antibacterial activity against wild-type Pseudomonas aeruginosa PAO1 assessed as inhibition of bacterial growth incubated for 24 hrs; type: functional; details: read-out: MIC100
# [4] = Hydrophobicity of compound assessed as %MeCN at peak elution by RP-HPLC analysis; type: physicochemical
# [5] = Lipophilicity, logD of compound at pH 7.4; type: physicochemical; details: buffer
# [6] = Aqueous solubility of compound at pH 7.4; type: physicochemical
# [7] = Chemical stability of compound at pH 2; type: physicochemical; details: buffer
# [8] = AUClast in Swiss mouse kidney at 10 mg/kg, iv administered as single bolus dose and measured upto 24 hrs by LC-MS/MS analysis; type: ADME, organism-based
# [9] = AUClast in Swiss mouse lung at 10 mg/kg, iv administered as single bolus dose and measured upto 24 hrs by LC-MS/MS analysis; type: ADME, organism-based
# Klebsiella pneumoniae [10] = assay: Antibacterial activity against Klebsiella pneumoniae ATCC 43816 assessed as inhibition of bacterial growth incubated for 18 hrs; type: functional; details: read-out: MIC100
# Enterobacter cloacae = assay: Antibacterial activity against Enterobacter cloacae ATCC 23355 assessed as inhibition of bacterial growth incubated for 18 hrs; type: functional; details: read-out: MIC100
# Escherichia coli [11] = assay: Antibacterial activity against colistin resistant Escherichia coli NCTC 13846 harboring mcr-1 gene assessed as inhibition of bacterial growth incubated for 18 hrs; type: functional; details: read-out: MIC100
# Escherichia coli [12] = assay: Antibacterial activity against Escherichia coli Swiss 9 harboring mcr-1 gene assessed as inhibition of bacterial growth incubated for 18 hrs; type: functional; details: read-out: MIC100
# Providencia stuartii = assay: Antibacterial activity against Providencia stuartii ATCC 25826 assessed as inhibition of bacterial growth incubated for 18 hrs; type: functional; details: read-out: MIC100
# Salmonella typhimurium = assay: Antibacterial activity against Salmonella typhimurium ATCC 13311 assessed as inhibition of bacterial growth incubated for 18 hrs; type: functional, Salmonella enterica subsp. enterica serovar Typhimurium; details: Salmonella enterica, read-out: MIC100
# Pseudomonas aeruginosa [13] = assay: Antibacterial activity against efflux-deficient Pseudomonas aeruginosa PAO750 assessed as inhibition of bacterial growth incubated for 18 hrs; type: functional; details: read-out: MIC100
# Klebsiella pneumoniae [14] = assay: Antibacterial activity against Klebsiella pneumoniae panel (100 strains) assessed as inhibition of bacterial growth; type: functional
# Escherichia coli [15] = assay: Antibacterial activity against Escherichia coli ATCC 25922 assessed as inhibition of bacterial growth incubated for 18 hrs in presence of 2 mM MgCl2; type: functional, organism-based
# Escherichia coli [16] = assay: Antibacterial activity against Escherichia coli ATCC 25922 assessed as inhibition of bacterial growth incubated for 18 hrs in presence of 25 mM bicarbonate; type: functional, organism-based
# [17] = Drug uptake in Escherichia coli ATCC 25922 at 10 uM incubated for 10 mins by LC-MS/MS analysis; type: ADME
# [18] = Binding affinity to gram negative bacterial lipid II assessed as dissociation constant by ITC analysis; set-up: species or system Bacteria
# Klebsiella pneumoniae [19] = assay: Bactericidal activity against Klebsiella pneumoniae ATCC 13883 at 0 to 8 times MIC measured for 24 hrs by time-kill assay; type: functional, organism-based
# Cell membrane = assay: Induction of membrane permeabilization in Klebsiella pneumoniae ATCC 13883 at 32 to 64 ug/ml measured after 30 mins by Sytox Green labelling based microscopic analysis; type: cell membranes; details: dose 32-64 µg/ml
# [20] = Toxicity in naive mouse assessed as animal death at >15 mg/kg, iv administered as single dose every 4 hrs for 24 hrs; type: organism-based; details: in vivo
# Escherichia coli [21] = assay: Antibacterial activity against Escherichia coli ATCC 35218 infected in Swiss albino mouse septicemia model assessed as log10 reduction in bacterial burden below stasis in kidney at 20 mg/kg, iv administered twice every 2 hrs and measured after 5 hrs; type: functional
# Klebsiella pneumoniae [22] = assay: Antibacterial activity against Klebsiella pneumoniae ATCC 43816 infected in cyclophosphamide immunosuppressed Swiss albino mouse respiratory infection model at 30 to 90 mg/kg, iv administered every 2 hrs starting from 1 hr post infection and measured 5 hrs post infection; type: functional, organism-based; details: dose 30-90 mg/kg, time 4.0 hrs
# Klebsiella pneumoniae [23] = assay: Antibacterial activity against Klebsiella pneumoniae ATCC 43816 infected in mouse urinary tract infection model assessed as reduction in bacterial burden in bladder at <10 mg/kg, iv administered every 4 hrs and measured after 26 hrs; type: functional, organism-based
# Klebsiella pneumoniae [24] = assay: Antibacterial activity against Klebsiella pneumoniae ATCC 43816 infected in mouse urinary tract infection model assessed as reduction in bacterial burden in kidney at <10 mg/kg, iv administered every 4 hrs and measured after 26 hrs; type: functional, organism-based
smiles,measurement,setting,value
CC[C@H](C)[C@@H](NC(=O)[C@@H](NC(=O)[C@H](CCC(=O)O)NC(=O)[C@H](Cc1ccccc1)NC(=O)[C@@H](CCN)NC(=O)[C@H](CCN)NC(=O)[C@H](CO)NC(=O)[C@@H](Cc1c[nH]c2ccccc12)NC(=O)[C@@H](CO)NC(=O)CNC(=O)[C@@H](CCN)NC(=O)[C@H](NC(=O)[C@H](C)N)C(C)C)C(C)C)C(=O)N[C@@H](C)C(=O)O,MIC,Escherichia coli [1],2 µg/mL
same,MIC,Klebsiella pneumoniae [2],1 µg/mL
same,MIC,Pseudomonas aeruginosa [3],64 µg/mL
same,MeCN percentage at peak elution,[4],40.3%
same,logD,[5],1.36
same,solubility,[6],> 1000 µg/mL
same,Stability,[7],Stable
same,AUC(0-t) at 24 h,[8],659 µg·h/mL
same,AUC(0-t) at 24 h,[9],12.1 µg·h/mL
same,MIC,Klebsiella pneumoniae [10],8 µg/mL
same,MIC,Enterobacter cloacae,2 µg/mL
same,MIC,Escherichia coli [11],2 µg/mL
same,MIC,Escherichia coli [12],8 µg/mL
same,MIC,Providencia stuartii,> 32 µg/mL
same,MIC,Salmonella typhimurium,16 µg/mL
same,MIC,Pseudomonas aeruginosa [13],32 µg/mL
same,MIC50,Klebsiella pneumoniae [14],8 µg/mL
same,MIC90,Klebsiella pneumoniae [14],32 µg/mL
same,Activity,Escherichia coli [15],Active
same,Activity,Escherichia coli [16],Active
same,Drug uptake,[17],Active
same,Kd,[18],2600 nM
same,Activity,Klebsiella pneumoniae [19],Active
same,Activity,Cell membrane,Active
same,Activity,[20],Toxic
same,log(activity),Escherichia coli [21],~2
same,Activity,Klebsiella pneumoniae [22],Active
same,Activity,Klebsiella pneumoniae [23],Active
same,Activity,Klebsiella pneumoniae [24],Active
